Patent US20250195553A1, “Use of Genipin-1-B-D-Gentiobioside in Preparation of Drug” (Guizhou Bailing Group Pharmaceutical Co., Ltd., priority 2023, published 2025)
Read-outs that look alike come from different tables or passages of the source.

Assays:
[1] = system: Mycoplasma Pneumoniae (MP); experiment: Inflammatory factors in lung tissue of MP-infected mice (ELISA); format: in vivo, BALB/C mice; conditions: 4 days
Procedure: […] Each group consisted of 10 mice, with an equal number of males and females. Except for the normal control group, all mice were lightly anesthetized with isoflurane and infected intranasally with Mycoplasma Pneumoniae (50 μl per mouse) for three consecutive days. On the day of infection, each treatment group received nebulized medication once daily for four consecutive days, while the normal control group and model control group received nebulized saline under the same conditions. On the fifth day, the mice were weighed, sacrificed by cervical dislocation, and their lung tissues were dissected, weighed, and used to calculate the lung index and lung index inhibition rate; measure the levels of inflammatory factors in the lung tissue; measure the serum CRP levels; and conduct pathological examinations of the lung tissue. The results were statistically analyzed using the t-test for intergroup comparisons.
(1) Sample Collection and Storage: Tissue Homogenate Samples: After weighing, lung tissues were collected from 8 mice in each group and stored at −80° C. The MP Fastprep-24 5G Rapid Sample Preparation System was used to homogenize the tissues, followed by centrifugation at […] and 3000 r/min for 10 minutes using a low-temperature high-speed centrifuge. The supernatant was then aspirated, aliquoted, and stored at −80° C. for future use, avoiding repeated freeze-thaw cycles.
(2) The microplate, which had been equilibrated to room temperature, was removed from the sealed bag. Different concentrations of standards were added to the corresponding wells, with 50 μL per well. For experimental samples, 10 μL of sample was added to each well, followed by 40 μL of diluent. Except for the blank wells, 100 μL of HRP (Horseradish Peroxidase) was added to each well. The reaction wells were sealed with sealing tape and incubated at 37° C. for 1 hour. The plate was then washed with wash buffer four times. After the final wash, the plate was inverted and all residual liquid was patted dry on absorbent paper. 50 μL of both Substrate A and Substrate B were added to each well. The reaction wells were then sealed with sealing tape and incubated at 37° C. for 15 minutes. After that, 50 μL of stop solution was added to each well, and the absorbance at 450 nm was measured using a microplate reader within 15 minutes. The results were then calculated.

[2] = system: Human Coronavirus 229E; experiment: Cytokines in lung tissue of mice infected with human coronavirus 229E (ELISA); format: in vivo; conditions: 4 days
Procedure: Seventy Institute of Cancer Research Mouse (ICR) mice were randomly divided into seven groups based on body weight: a normal control group, a model control group, a chloroquine phosphate control group, and four Genipin-1-β-D-gentiobioside dosage groups (75 mg/ml, 37.5 mg/ml, 18.75 mg/ml, and 9.375 mg/ml), with ten mice in each group. Except for the normal control group, the other mice were lightly anesthetized with isoflurane and infected intranasally with 50 μl of 100 TCID50 coronavirus strain 229E or OC43. The infection was repeated every other day. Nebulization administration began on the same day as the first infection, with a flow rate of 7.5 L/min. The four Genipin-1-β-D-gentiobioside dosage groups were nebulized for 25 minutes each. The chloroquine phosphate control group was administered 0.2 ml/10 g body weight by gavage once daily for four consecutive days. The normal control group and the model control group were nebulized with distilled water for 25 minutes under the same conditions. On the fifth day, the mice were dissected, and the following indicators were measured:
(2) The left lung lobes were used for viral nucleic acid detection, while the right lung lobes were used for the quantification of inflammatory factors: IL-6, IL-10, and TNF-α.
The inhalation administration samples mentioned above were used. The weight of the lung tissue was measured, and an appropriate amount of physiological saline was added to make a 10% tissue homogenate. After homogenizing the tissue using a high-throughput tissue grinder, it was centrifuged at 4° C. and 3000 rpm for 10 minutes using a low-temperature high-speed centrifuge. The supernatant was then aspirated, aliquotted, and stored at −80° C. for future use, avoiding repeated freeze-thaw cycles. For detection, the absorbance at 450 nm was measured using a microplate reader according to the kit instructions.

[3] = system: Human Respiratory Syncytial Virus (RSV); experiment: Mouse pneumonia model infected with RSV, nebulization: lung index; format: in vivo
Procedure: […] BALB/c mice, weighing 10±1 g, were randomly divided into four groups: a normal control group, a model control group, a high-dose Genipin-1-β-D-gentiobioside group (75 mg/ml), and a low-dose Genipin-1-β-D-gentiobioside group (37.5 mg/ml). Each group consisted of 10 mice, with an equal number of males and females. Except for the normal control group, all mice were lightly anesthetized with isoflurane and infected with respiratory syncytial virus (RSV) via intranasal administration, with each mouse receiving 35 μl of the virus. On the day of infection, the treatment groups began inhalation administration. Each group received nebulization for 25 minutes once daily for four consecutive days. The normal control group and the model control group received nebulized saline under the same conditions. On the fifth day, after weighing, the mice were sacrificed by cervical dislocation, and their lung tissues were dissected, weighed, and used to calculate the lung index and lung index inhibition rate. The lung tissues were also retained for virus load, pathological examination, and inflammatory factor detection. The results were statistically analyzed using the t-test for intergroup comparisons.

[4] = system: Human Coronavirus 229E (HCoV-229E); format: in vivo; conditions: 4 days
[5] = system: Human Coronavirus 229E (HCoV-229E); format: in vivo
[6] = 37.5 mg/ml nebulization 25 min once daily 4 days
[7] = 75 mg/ml nebulization 25 min once daily 4 days

COC(=O)C1=CO[C@@H](O[C@@H]2O[C@H](CO[C@@H]3O[C@H](CO)[C@@H](O)[C@H](O)[C@H]3O)[C@@H](O)[C@H](O)[C@H]2O)[C@@H]2C(CO)=CC[C@H]12 [Genipin-1-β-D-gentiobioside]
Inflammatory Factor Levels in Lung Tissue IL-1β ([1]; 37.5 mg/ml inhalation): 147.59 ± 41.87 pg/mL
Inflammatory Factor Levels in Lung Tissue IL-6 ([1]; 37.5 mg/ml inhalation): 150.92 ± 7.65 pg/mL
Inflammatory Factor Levels in Lung Tissue TNF-α ([1]; 37.5 mg/ml inhalation): 248.53 ± 93.97 pg/mL
Inflammatory Factor Levels in Lung Tissue IL-1β ([1]; 75 mg/ml inhalation): 148.31 ± 10.97 pg/mL
Inflammatory Factor Levels in Lung Tissue IL-6 ([1]; 75 mg/ml inhalation): 163.92 ± 8.54 pg/mL
Inflammatory Factor Levels in Lung Tissue TNF-α ([1]; 75 mg/ml inhalation): 312.79 ± 81.52 pg/mL
Cytokine Levels in Lung Tissue IL-6 ([2]; 9.375 mg/ml inhalation): 98.70 ± 4.56 pg/mL
Cytokine Levels in Lung Tissue IL-10 ([2]; 9.375 mg/ml inhalation): 331.34 ± 28.00 pg/mL
Cytokine Levels in Lung Tissue TNF-α ([2]; 9.375 mg/ml inhalation): 511.16 ± 80.14 pg/mL
Cytokine Levels in Lung Tissue IL-6 ([2]; 18.75 mg/ml inhalation): 99.51 ± 5.24 pg/mL
Cytokine Levels in Lung Tissue IL-10 ([2]; 18.75 mg/ml inhalation): 330.61 ± 25.07 pg/mL
Cytokine Levels in Lung Tissue TNF-α ([2]; 18.75 mg/ml inhalation): 503.00 ± 56.50 pg/mL
Cytokine Levels in Lung Tissue IL-6 ([2]; 37.5 mg/ml inhalation): 98.23 ± 3.42 pg/mL
Cytokine Levels in Lung Tissue IL-10 ([2]; 37.5 mg/ml inhalation): 334.12 ± 25.59 pg/mL
Cytokine Levels in Lung Tissue TNF-α ([2]; 37.5 mg/ml inhalation): 513.28 ± 58.74 pg/mL
Cytokine Levels in Lung Tissue IL-6 ([2]; 75 mg/ml inhalation): 98.31 ± 2.78 pg/mL
Cytokine Levels in Lung Tissue IL-10 ([2]; 75 mg/ml inhalation): 341.12 ± 29.07 pg/mL
Cytokine Levels in Lung Tissue TNF-α ([2]; 75 mg/ml inhalation): 511.81 ± 51.82 pg/mL
Inhibition Rate (lung index) [3, 6]: 68.79%
Lung Index [3, 6]: 0.70 ± 0.09 Lung weight/100 g body weight
Inhibition Rate (lung index) [3, 7]: 88.35%
Lung Index [3, 7]: 0.67 ± 014 Lung weight/100 g body weight
Inhibition Rate (lung index) ([4]; 9.375 mg/ml inhalation 25 min): 65.98%
Lung Index ([4]; 9.375 mg/ml inhalation 25 min): 0.77 ± 0.08 g lung weight × 100 g/body weight
Inhibition Rate (lung index) ([4]; 18.75 mg/ml inhalation 25 min): 65.59%
Lung Index ([4]; 18.75 mg/ml inhalation 25 min): 0.77 ± 0.08 g lung weight × 100 g/body weight
Inhibition Rate (lung index) ([4]; 37.5 mg/ml inhalation 25 min): 64.22%
Lung Index ([4]; 37.5 mg/ml inhalation 25 min): 0.77 ± 0.05 g lung weight × 100 g/body weight
Inhibition Rate (lung index) ([4]; 75 mg/ml inhalation 25 min): 109.19%
Lung Index ([4]; 75 mg/ml inhalation 25 min): 0.71 ± 0.05 g lung weight × 100 g/body weight
Inhibition Rate (lung index) ([5]; 37.5 mg/kg/d i.v. 4 days): 75.12%
Lung Index ([5]; 37.5 mg/kg/d i.v. 4 days): 0.95 ± 0.11 g lung weight × 100 g/body weight
Inhibition Rate (lung index) ([5]; 75 mg/kg/d i.v. 4 days): 71.04%
Lung Index ([5]; 75 mg/kg/d i.v. 4 days): 0.96 ± 0.12 g lung weight × 100 g/body weight
Inhibition Rate (lung index) ([5]; 150 mg/kg/d i.v. 4 days): 99.06%
Lung Index ([5]; 150 mg/kg/d i.v. 4 days): 0.89 ± 0.06 g lung weight × 100 g/body weight
